This is an account of results in the supplement of paper PMC10307832.

Each structure is given as a SMILES string.

For the first test, the system named is NCI-H2347. In words: relative viability (nuclei count vs DMSO), 5 days (fraction); higher = more cells survive. To be noted: first compound 2.53 µM. The method, boiled down:
(§1)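 Cells from lung cancer lines were seeded into 1536-well plates and, one day later, dosed by pin tool. Treatments were either a single drug or a fixed dose of an anchor drug with five library-drug doses (not always all listed) in √10 steps. After 5 days, nuclei were stained in a one-step fixation (final 0.05% Triton X-100, 1% formaldehyde, 1 ug/ml Hoechst) and counted on 4× images, and relative viability is the treated-to-vehicle nuclei ratio, as the median of duplicate plates.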
`CCCCCCCCCCCC1=C(O)C(=O)C=C(O)C1=O` [Embelin] + O=C(CCCCCCC(=O)Nc1ccccc1)NO [Vorinostat] (partner 1 µM) had a relative viability of 0.513.

`CCCCCCCCCCCC1=C(O)C(=O)C=C(O)C1=O` [Embelin] + O=C(c1cc(Cc2n[nH]c(=O)c3ccccc23)ccc1F)N1CCN(C(=O)C2CC2)CC1 [Olaparib] (partner 8 µM) showed a relative viability of 0.521.

Compound `CCCCCCCCCCCC1=C(O)C(=O)C=C(O)C1=O` [Embelin] + Cc1cc(Nc2cc(N3CCN(C)CC3)nc(Sc3ccc(NC(=O)C4CC4)cc3)n2)n[nH]1 [Tozasertib] (partner 0.1 µM) returned a relative viability of 0.575.

The compound `CCCCCCCCCCCC1=C(O)C(=O)C=C(O)C1=O` [Embelin] + Nc1ncn([C@H]2C[C@H](O)[C@@H](CO)O2)c(=O)n1 [Decitabine] (partner 2 µM) displayed a relative viability of 0.671.

Compound `CCCCCCCCCCCC1=C(O)C(=O)C=C(O)C1=O` [Embelin] + CC(=O)c1c(C)c2cnc(Nc3ccc(N4CCNCC4)cn3)nc2n(C2CCCC2)c1=O [Palbociclib] (partner 0.5 µM) came in with a relative viability of 0.451.

Still in this test, the particulars now being: first compound 8 µM.
As to `CCCCCCCCCCCC1=C(O)C(=O)C=C(O)C1=O` [Embelin] + O=C(CCCCCCC(=O)Nc1ccccc1)NO [Vorinostat] (partner 1 µM), the relative viability amounted to 0.656.

Regarding `CCCCCCCCCCCC1=C(O)C(=O)C=C(O)C1=O` [Embelin] + O=C(c1cc(Cc2n[nH]c(=O)c3ccccc23)ccc1F)N1CCN(C(=O)C2CC2)CC1 [Olaparib] (partner 8 µM), the relative viability was 0.68.

Take `CCCCCCCCCCCC1=C(O)C(=O)C=C(O)C1=O` [Embelin] + Cc1cc(Nc2cc(N3CCN(C)CC3)nc(Sc3ccc(NC(=O)C4CC4)cc3)n2)n[nH]1 [Tozasertib] (partner 0.1 µM): the relative viability was found to be 0.612.

For `CCCCCCCCCCCC1=C(O)C(=O)C=C(O)C1=O` [Embelin] + Nc1ncn([C@H]2C[C@H](O)[C@@H](CO)O2)c(=O)n1 [Decitabine] (partner 2 µM), the relative viability was determined as 0.592.

The compound `CCCCCCCCCCCC1=C(O)C(=O)C=C(O)C1=O` [Embelin] + CC(=O)c1c(C)c2cnc(Nc3ccc(N4CCNCC4)cn3)nc2n(C2CCCC2)c1=O [Palbociclib] (partner 0.5 µM) showed a relative viability of 0.389.

In the next test the test system is NCI-H441. Described as above. To be noted: first compound 0.08 µM. In a few lines:
as §1
`CCCCCCCCCCCC1=C(O)C(=O)C=C(O)C1=O` [Embelin] + O=C(CCCCCCC(=O)Nc1ccccc1)NO [Vorinostat] (partner 1 µM): the relative viability came to 0.691.

`CCCCCCCCCCCC1=C(O)C(=O)C=C(O)C1=O` [Embelin] + O=C(c1cc(Cc2n[nH]c(=O)c3ccccc23)ccc1F)N1CCN(C(=O)C2CC2)CC1 [Olaparib] (partner 8 µM) returned a relative viability of 0.624.

In turn, `CCCCCCCCCCCC1=C(O)C(=O)C=C(O)C1=O` [Embelin] + Cc1cc(Nc2cc(N3CCN(C)CC3)nc(Sc3ccc(NC(=O)C4CC4)cc3)n2)n[nH]1 [Tozasertib] (partner 0.1 µM) yielded a relative viability of 0.588.

The compound `CCCCCCCCCCCC1=C(O)C(=O)C=C(O)C1=O` [Embelin] + Nc1ncn([C@H]2C[C@H](O)[C@@H](CO)O2)c(=O)n1 [Decitabine] (partner 2 µM) came in with a relative viability of 0.221.

Regarding `CCCCCCCCCCCC1=C(O)C(=O)C=C(O)C1=O` [Embelin] + CC(=O)c1c(C)c2cnc(Nc3ccc(N4CCNCC4)cn3)nc2n(C2CCCC2)c1=O [Palbociclib] (partner 0.5 µM), the relative viability turned out to be 0.217.

Staying with this test, now noted: first compound 0.8 µM.
With `CCCCCCCCCCCC1=C(O)C(=O)C=C(O)C1=O` [Embelin] + O=C(CCCCCCC(=O)Nc1ccccc1)NO [Vorinostat] (partner 1 µM), the relative viability turned out to be 0.905.

As to `CCCCCCCCCCCC1=C(O)C(=O)C=C(O)C1=O` [Embelin] + O=C(c1cc(Cc2n[nH]c(=O)c3ccccc23)ccc1F)N1CCN(C(=O)C2CC2)CC1 [Olaparib] (partner 8 µM), the relative viability stood at 0.627.

Compound `CCCCCCCCCCCC1=C(O)C(=O)C=C(O)C1=O` [Embelin] + Cc1cc(Nc2cc(N3CCN(C)CC3)nc(Sc3ccc(NC(=O)C4CC4)cc3)n2)n[nH]1 [Tozasertib] (partner 0.1 µM) returned a relative viability of 0.628.

The compound `CCCCCCCCCCCC1=C(O)C(=O)C=C(O)C1=O` [Embelin] + Nc1ncn([C@H]2C[C@H](O)[C@@H](CO)O2)c(=O)n1 [Decitabine] (partner 2 µM) yielded a relative viability of 0.268.

On to `CCCCCCCCCCCC1=C(O)C(=O)C=C(O)C1=O` [Embelin] + CC(=O)c1c(C)c2cnc(Nc3ccc(N4CCNCC4)cn3)nc2n(C2CCCC2)c1=O [Palbociclib] (partner 0.5 µM), for which the relative viability is 0.221.

Staying with this test, now noted: first compound 2.53 µM.
`CCCCCCCCCCCC1=C(O)C(=O)C=C(O)C1=O` [Embelin] + O=C(CCCCCCC(=O)Nc1ccccc1)NO [Vorinostat] (partner 1 µM) yielded a relative viability of 0.841.

For `CCCCCCCCCCCC1=C(O)C(=O)C=C(O)C1=O` [Embelin] + O=C(c1cc(Cc2n[nH]c(=O)c3ccccc23)ccc1F)N1CCN(C(=O)C2CC2)CC1 [Olaparib] (partner 8 µM), the relative viability was found to be 0.521.

As for `CCCCCCCCCCCC1=C(O)C(=O)C=C(O)C1=O` [Embelin] + Cc1cc(Nc2cc(N3CCN(C)CC3)nc(Sc3ccc(NC(=O)C4CC4)cc3)n2)n[nH]1 [Tozasertib] (partner 0.1 µM), the relative viability came out at 0.624.

Consider `CCCCCCCCCCCC1=C(O)C(=O)C=C(O)C1=O` [Embelin] + Nc1ncn([C@H]2C[C@H](O)[C@@H](CO)O2)c(=O)n1 [Decitabine] (partner 2 µM), for which the relative viability stood at 0.198.

`CCCCCCCCCCCC1=C(O)C(=O)C=C(O)C1=O` [Embelin] + CC(=O)c1c(C)c2cnc(Nc3ccc(N4CCNCC4)cn3)nc2n(C2CCCC2)c1=O [Palbociclib] (partner 0.5 µM) displayed a relative viability of 0.193.

Still in this test, the particulars now being: first compound 8 µM.
Consider `CCCCCCCCCCCC1=C(O)C(=O)C=C(O)C1=O` [Embelin] + O=C(CCCCCCC(=O)Nc1ccccc1)NO [Vorinostat] (partner 1 µM), for which the relative viability was determined as 0.657.

The compound `CCCCCCCCCCCC1=C(O)C(=O)C=C(O)C1=O` [Embelin] + O=C(c1cc(Cc2n[nH]c(=O)c3ccccc23)ccc1F)N1CCN(C(=O)C2CC2)CC1 [Olaparib] (partner 8 µM) returned a relative viability of 0.618.

`CCCCCCCCCCCC1=C(O)C(=O)C=C(O)C1=O` [Embelin] + Cc1cc(Nc2cc(N3CCN(C)CC3)nc(Sc3ccc(NC(=O)C4CC4)cc3)n2)n[nH]1 [Tozasertib] (partner 0.1 µM): the relative viability amounted to 0.629.

`CCCCCCCCCCCC1=C(O)C(=O)C=C(O)C1=O` [Embelin] + Nc1ncn([C@H]2C[C@H](O)[C@@H](CO)O2)c(=O)n1 [Decitabine] (partner 2 µM) returned a relative viability of 0.237.

Take `CCCCCCCCCCCC1=C(O)C(=O)C=C(O)C1=O` [Embelin] + CC(=O)c1c(C)c2cnc(Nc3ccc(N4CCNCC4)cn3)nc2n(C2CCCC2)c1=O [Palbociclib] (partner 0.5 µM): the relative viability came to 0.195.
